Measured values published in patent US20260365647A1, “AKT1 MODULATORS” (Alterome Therapeutics, Inc., priority 2022, published 2026).

Target: T1, AKT1-E17K (Homo sapiens, UniProt P31749, E17K)
T1 construct: host or cells: HEK-293 (ATCC CRL-1573)
Assay: NanoBRET Target Engagement (TE) Assay
Assay type: cell-based
Summary of the method: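 Live cells transiently expressing NanoLuc-AKT1 E17K fusion, incubated 2 h with tracer and compound before substrate plus extracellular NanoLuc inhibitor were added. BRET read at 450/600 nm; EC50 from variable-slope sigmoidal fit of tracer displacement.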

T1 sequence (P31749 whole entry E17K): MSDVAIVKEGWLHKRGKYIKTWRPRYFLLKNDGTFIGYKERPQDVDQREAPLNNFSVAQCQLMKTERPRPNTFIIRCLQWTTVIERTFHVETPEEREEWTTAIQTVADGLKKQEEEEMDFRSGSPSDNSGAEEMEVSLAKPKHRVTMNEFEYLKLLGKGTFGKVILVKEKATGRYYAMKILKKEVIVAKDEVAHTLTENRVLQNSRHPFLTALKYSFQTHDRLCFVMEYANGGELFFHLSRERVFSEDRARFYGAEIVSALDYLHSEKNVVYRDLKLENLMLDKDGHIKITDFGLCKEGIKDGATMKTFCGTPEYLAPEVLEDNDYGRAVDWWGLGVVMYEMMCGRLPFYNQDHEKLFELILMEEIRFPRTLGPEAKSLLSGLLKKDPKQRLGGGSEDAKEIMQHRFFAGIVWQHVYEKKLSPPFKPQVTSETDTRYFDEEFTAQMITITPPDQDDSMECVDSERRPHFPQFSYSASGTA

IC50 [nM]	SMILES
15 to 60	Nc1ncccc1-c1nc2ccc(-c3ccccc3)nc2n1-c1ccc(CN2CCCC(NC(=O)c3ccc(O)c(C=O)c3)CC2)cc1 (centres unmarked) [Example 115, N-(1-(4-(2-(2-Aminopyridin-3-yl)-5-phenyl-3H-imidazo[4,5-b]pyridin-3-yl)benzyl)azepan-4-yl)-3-formyl-4-hydroxybenzamide]
60 to 600	Nc1ncccc1-c1nc2ccc(-c3ccccc3)nc2n1-c1ccc(CN2CCN(C(=O)c3ccc(O)c(C=O)c3)CC2)cc1 [Example 5, 5-(4-(4-(2-(2-Aminopyridin-3-yl)-5-phenyl-3H-imidazo[4,5-b]pyridin-3-yl)benzyl)piperazine-1-carbonyl)-2-hydroxybenzaldehyde]
60 to 600	N#Cc1cccc(-c2ccc3nc(-c4cccnc4N)n(-c4ccc(CN5CCN(C(=O)c6ccc(C=O)c(O)c6)CC5)cc4)c3n2)c1 [Example 35, 3-(2-(2-Aminopyridin-3-yl)-3-(4-((4-(4-formyl-3-hydroxybenzoyl)piperazin-1-yl)methyl)phenyl)-3H-imidazo[4,5-b]pyridin-5-yl)benzonitrile]
60 to 600	Nc1ncccc1-c1nc2ccc(-c3ccccc3)nc2n1-c1ccc(CN2CCC3(CC2)CCN(C(=O)c2ccc(C=O)c(O)c2)C3)cc1 [Example 75, 4-(8-(4-(2-(2-Aminopyridin-3-yl)-5-phenyl-3H-imidazo[4,5-b]pyridin-3-yl)benzyl)-2,8-diazaspiro[4.5]decane-2-carbonyl)-2-hydroxybenzaldehyde]
60 to 600	Nc1ncccc1-c1nc2ccc(-c3ccc(F)cc3)nc2n1-c1ccc(CN2CCN(C(=O)c3ccc(O)c(C=O)c3)CC2)cc1 [Example 143, 5-(4-(4-(2-(2-Aminopyridin-3-yl)-5-(4-fluorophenyl)-3H-imidazo[4,5-b]pyridin-3-yl)benzyl)piperazine-1-carbonyl)-2-hydroxybenzaldehyde]
60 to 600	Nc1ncccc1-c1nc2ccc(-c3ccccc3)nc2n1-c1ccc(CN2CC[C@@H](NC(=O)c3ccc(C=O)c(O)c3)C2)cc1 [Example 64, (R)—N-(1-(4-(2-(2-Aminopyridin-3-yl)-5-phenyl-3H-imidazo[4,5-b]pyridin-3-yl)benzyl)pyrrolidin-3-yl)-4-formyl-3-hydroxybenzamide]
60 to 600	Nc1ncccc1-c1nc2ccc(-c3ccccc3)nc2n1-c1ccc(CN2CC[C@]3(CCN(C(=O)c4ccc(C=O)c(O)c4)C3)C2)cc1 [Example 102, (S)-4-(7-(4-(2-(2-Aminopyridin-3-yl)-5-phenyl-3H-imidazo[4,5-b]pyridin-3-yl)benzyl)-2,7-diazaspiro[4.4]nonane-2-carbonyl)-2-hydroxybenzaldehyde]
> 600	Nc1ncccc1-c1nc2ccc(-c3ccccc3)nc2n1-c1ccc(CN2CCCCC(NC(=O)c3ccc(O)c(C=O)c3)C2)cc1 (centres unmarked) [Example 117, N-(1-(4-(2-(2-Aminopyridin-3-yl)-5-phenyl-3H-imidazo[4,5-b]pyridin-3-yl)benzyl)azepan-3-yl)-3-formyl-4-hydroxybenzamide]
> 600	Nc1ncccc1-c1nc2ccc(-c3ccccc3)nc2n1-c1ccc(CN2CCCCC(NC(=O)c3ccc(C=O)c(O)c3)C2)cc1 (centres unmarked) [Example 118, N-(1-(4-(2-(2-Aminopyridin-3-yl)-5-phenyl-3H-imidazo[4,5-b]pyridin-3-yl)benzyl)azepan-3-yl)-4-formyl-3-hydroxybenzamide]
60 to 600	Nc1ncccc1-c1nc2ccc(-c3ccccc3)nc2n1-c1ccc(CN2CCC3(CC2)CCN(c2ccc(C=O)c(O)c2)C3)cc1 [Example 76, 4-(8-(4-(2-(2-Aminopyridin-3-yl)-5-phenyl-3H-imidazo[4,5-b]pyridin-3-yl)benzyl)-2,8-diazaspiro[4.5]decan-2-yl)-2-hydroxybenzaldehyde]
60 to 600	Nc1ncccc1-c1nc2ccc(-c3ccccc3)nc2n1-c1ccc(CN2CCC(Nc3ccc(O)c(C=O)c3)CC2)cc1 [Example 48, 5-((1-(4-(2-(2-Aminopyridin-3-yl)-5-phenyl-3H-imidazo[4,5-b]pyridin-3-yl)benzyl)piperidin-4-yl)amino)-2-hydroxybenzaldehyde]
15 to 60	Nc1ncccc1-c1nc2ccc(-c3ccccc3)nc2n1-c1ccc(CN2CC3(CCN(C(=O)c4ccc(O)c(C=O)c4)C3)C2)cc1 [Example 92, 5-(2-(4-(2-(2-Aminopyridin-3-yl)-5-phenyl-3H-imidazo[4,5-b]pyridin-3-yl)benzyl)-2,6-diazaspiro[3.4]octane-6-carbonyl)-2-hydroxybenzaldehyde]
< 15	Nc1ncccc1-c1nc2ccc(-c3ccccc3)nc2n1-c1ccc(CN2CC[C@@H](NC(=O)c3ccc(O)c(C=O)c3)C2)cc1 [Example 59, (R)—N-(1-(4-(2-(2-aminopyridin-3-yl)-5-phenyl-3H-imidazo[4,5-b]pyridin-3-yl)benzyl)pyrrolidin-3-yl)-3-formyl-4-hydroxybenzamide]
60 to 600	Nc1ncccc1-c1nc2ccc(-c3ccccc3)nc2n1-c1ccc(CN2CCC3(CC2)CCN(C(=O)c2ccc(O)c(C=O)c2)CC3)cc1 [Example 77, 5-(9-(4-(2-(2-Aminopyridin-3-yl)-5-phenyl-3H-imidazo[4,5-b]pyridin-3-yl)benzyl)-3,9-diazaspiro[5.5]undecane-3-carbonyl)-2-hydroxybenzaldehyde]
15 to 60	Nc1ncccc1-c1nc2ccc(-c3ccccc3F)nc2n1-c1ccc(CN2CCN(C(=O)c3ccc(O)c(C=O)c3)CC2)cc1 [Example 141, 5-(4-(4-(2-(2-Aminopyridin-3-yl)-5-(2-fluorophenyl)-3H-imidazo[4,5-b]pyridin-3-yl)benzyl)piperazine-1-carbonyl)-2-hydroxybenzaldehyde]
60 to 600	Nc1ncccc1-c1nc2ccc(-c3ccccc3)nc2n1-c1ccc(CN2CCN(c3cccc(C=O)c3O)CC2)cc1 [Example 23, 3-(4-(4-(2-(2-aminopyridin-3-yl)-5-phenyl-3H-imidazo[4,5-b]pyridin-3-yl)benzyl)piperazin-1-yl)-2-hydroxybenzaldehyde]
15 to 60	Nc1ncccc1-c1nc2ccc(-c3ccccc3)nc2n1-c1ccc(CN2CCC3(CC2)CCN(C(=O)c2ccc(O)c(C=O)c2)C3)cc1 [Example 74, 5-(8-(4-(2-(2-aminopyridin-3-yl)-5-phenyl-3H-imidazo[4,5-b]pyridin-3-yl)benzyl)-2,8-diazaspiro[4.5]decane-2-carbonyl)-2-hydroxybenzaldehyde]
15 to 60	Nc1ncccc1-c1nc2ccc(-c3ccccc3)nc2n1-c1ccc(CN2CC3(C2)CN(c2ccc(C=O)c(O)c2)C3)cc1 [Example 89, 4-(6-(4-(2-(2-aminopyridin-3-yl)-5-phenyl-3H-imidazo[4,5-b]pyridin-3-yl)benzyl)-2,6-diazaspiro[3.3]heptan-2-yl)-2-hydroxybenzaldehyde]
60 to 600	N#Cc1ccc(-c2ccc3nc(-c4cccnc4N)n(-c4ccc(CN5CCN(C(=O)c6ccc(C=O)c(O)c6)CC5)cc4)c3n2)cc1 [Example 39, 4-(2-(2-Aminopyridin-3-yl)-3-(4-((4-(4-formyl-3-hydroxybenzoyl)piperazin-1-yl)methyl)phenyl)-3H-imidazo[4,5-b]pyridin-5-yl)benzonitrile]
15 to 60	Nc1ncccc1-c1nc2ccc(-c3ccccc3)nc2n1-c1ccc(CN2CCC3(CC2)CC(NC(=O)c2ccc(O)c(C=O)c2)C3)cc1 [Example 68, N-(7-(4-(2-(2-Aminopyridin-3-yl)-5-phenyl-3H-imidazo[4,5-b]pyridin-3-yl)benzyl)-7-azaspiro[3.5]nonan-2-yl)-3-formyl-4-hydroxybenzamide]
< 15	Nc1ncccc1-c1nc2ccc(-c3ccccc3)nc2n1-c1ccc(CN2CC3(C2)CN(C(=O)c2ccc(O)c(C=O)c2)C3)cc1 [Example 62, 5-(6-(4-(2-(2-Aminopyridin-3-yl)-5-phenyl-3H-imidazo[4,5-b]pyridin-3-yl)benzyl)-2,6-diazaspiro[3.3]heptane-2-carbonyl)-2-hydroxybenzaldehyde]
60 to 600	Nc1ncccc1-c1nc2ccc(-c3ccccc3)nc2n1-c1ccc(CN2CCC3(CCN(C(=O)c4ccc(C=O)c(O)c4)CC3)C2)cc1 [Example 90, 4-(2-(4-(2-(2-Aminopyridin-3-yl)-5-phenyl-3H-imidazo[4,5-b]pyridin-3-yl)benzyl)-2,8-diazaspiro[4.5]decane-8-carbonyl)-2-hydroxybenzaldehyde]
60 to 600	Nc1ncccc1-c1nc2ccc(-c3cccc(Cl)c3)nc2n1-c1ccc(CN2CCN(C(=O)c3ccc(C=O)c(O)c3)CC2)cc1 [Example 43, 4-(4-(4-(2-(2-Aminopyridin-3-yl)-5-(3-chlorophenyl)-3H-imidazo[4,5-b]pyridin-3-yl)benzyl)piperazine-1-carbonyl)-2-hydroxybenzaldehyde]
